From a melting point compilation (Tetko et al.)

**Q.** With `O=C1Nc2cccc(I)c2C1=O` as the compound, how does the melting point read?
**A.** 199 to 201 °C

**Q.** Which melting point does the source give for `NC(Cc1cccnc1)=NO` here?
**A.** 149 to 151 °C

**Q.** Which melting point does the source give for `O=C(CCl)Nc1ccc(N2CCCCC2)nc1` here?
**A.** 139 to 141 °C

**Q.** Which melting point does the source give for `O=C(Cc1ccc(Cl)cc1Cl)c1ccc(F)cc1` here?
**A.** 108 to 110 °C

**Q.** For `CC(C)(C)c1ncsc1C(=O)O`, which melting point is on record?
**A.** 185 to 187 °C

**Q.** With `Fc1ccc(C2=NOC(CCl)C2)cc1` (stereo not given) as the compound, how does the melting point read?
**A.** 59 to 61 °C

**Q.** For `Cc1ccc2c(c1C)NC(=O)C2=O`, which melting point is on record?
**A.** 228 to 232 °C

**Q.** Which melting point does the source give for `N[C@H]1CC[C@@H](CO)CC1` here?
**A.** 144 to 146 °C

**Q.** With `NNc1cncc(Cl)n1` as the compound, how does the melting point read?
**A.** 137 to 139 °C

**Q.** With `O=C(O)/C=C/c1cc(Cl)c2c(c1)OCCCO2` as the compound, how does the melting point read?
**A.** 178 to 180 °C

**Q.** For `COC(=O)c1sc(-c2ccccc2)cc1O`, which melting point is on record?
**A.** 94 to 96 °C

**Q.** For `O=C(O)C1=NN(c2ccc(Cl)cc2)C(=O)CC1`, which melting point is on record?
**A.** 161 to 163 °C

**Q.** With `Cc1nnc(-c2cccc(C(=O)O)c2)o1` as the compound, how does the melting point read?
**A.** 241 to 243 °C

**Q.** With `Cc1ccc2c(c1)nc(S)n2Cc1ccccc1Cl` as the compound, how does the melting point read?
**A.** 189 to 191 °C

**Q.** Which melting point does the source give for `O=C(O)C=Cc1cc(Br)ccc1OC(F)F` here?
**A.** 155 to 157 °C

**Q.** Which melting point does the source give for `Cc1sc(C(=O)O)cc1S(=O)(=O)Cl` here?
**A.** 148 to 150 °C

**Q.** For `Cc1cc(C)c(N=C=S)c(Cl)c1`, which melting point is on record?
**A.** 55 to 57 °C

**Q.** Which melting point does the source give for `Nc1cc(S(=O)(=O)Nc2ccccc2Cl)ccc1Cl` here?
**A.** 89 to 93 °C

**Q.** With `Nc1ccc([N+](=O)[O-])cc1Br` as the compound, how does the melting point read?
**A.** 99 to 101 °C

**Q.** With `C/C(=N\O)c1sc(C(C)(C)C)nc1C` as the compound, how does the melting point read?
**A.** 117 to 119 °C

**Q.** With `Cc1ccc(OC2CCNCC2)cc1` as the compound, how does the melting point read?
**A.** 44 to 46 °C

**Q.** Which melting point does the source give for `Clc1cc(OCc2ccccc2)ccn1` here?
**A.** 93 to 95 °C

**Q.** Which melting point does the source give for `O=C(O)CCOc1ccc(Br)cc1F` here?
**A.** 91 to 93 °C

**Q.** Which melting point does the source give for `O=C(O)c1nccnc1C(=O)N1CCOCC1` here?
**A.** 185 to 187 °C

**Q.** For `ClCc1nnc(-c2ccccc2Cl)o1`, which melting point is on record?
**A.** 91 to 93 °C

**Q.** Which melting point does the source give for `O=C(O)c1cn(Cc2ccccc2)nn1` here?
**A.** 176 to 178 °C

**Q.** Which melting point does the source give for `N#CCOc1ccc(CC(=O)O)cc1` here?
**A.** 111 to 113 °C

**Q.** For `O=Cc1cn(-c2ccccc2)nc1-c1cc2ccccc2o1`, which melting point is on record?
**A.** 176 to 178 °C

**Q.** For `CCOC(=O)c1cnn(-c2ncccn2)c1N`, which melting point is on record?
**A.** 181 to 183 °C

**Q.** With `O=C(O)c1cnc(-c2ccccc2)s1` as the compound, how does the melting point read?
**A.** 187 to 189 °C

**Q.** For `O=C(O)CCC(=O)c1ccc2c(c1)-c1ccccc1C2`, which melting point is on record?
**A.** 189 to 191 °C

**Q.** For `CCN(CC)S(=O)(=O)c1ccc(F)c(C(=O)O)c1`, which melting point is on record?
**A.** 161 to 163 °C

**Q.** With `CCCOc1ccc(C(=O)NN)cc1OC` as the compound, how does the melting point read?
**A.** 146 to 148 °C

**Q.** For `CC(O)(Cc1ccccc1)C(=O)O` (stereo not given), which melting point is on record?
**A.** 90 to 92 °C

**Q.** With `N#Cc1nc(C2CC2)oc1N1CCNCC1` as the compound, how does the melting point read?
**A.** 99 to 101 °C

**Q.** With `O=[N+]([O-])c1ccc(-c2nnc(O)o2)cc1` as the compound, how does the melting point read?
**A.** 249 to 251 °C

**Q.** With `O=C(O)c1ccc(Oc2cccnc2)cc1` as the compound, how does the melting point read?
**A.** 204 to 206 °C

**Q.** With `Cc1cc(C(=O)O)cc(S(=O)(=O)Cl)c1C` as the compound, how does the melting point read?
**A.** 171 to 173 °C

**Q.** For `COc1cc(C(=O)O)ccc1NN`, which melting point is on record?
**A.** 149 to 151 °C

**Q.** With `N#Cc1ccccc1S(=O)(=O)N1CCC(C(=O)O)CC1` as the compound, how does the melting point read?
**A.** 150 to 152 °C

**Q.** For `COc1ccc(NS(=O)(=O)c2cc(C(=O)O)ccc2F)cc1`, which melting point is on record?
**A.** 209 to 211 °C

**Q.** With `Nc1cc(CC2CC3CCC2C3)no1` (stereo not given) as the compound, how does the melting point read?
**A.** 86 to 88 °C

**Q.** Which melting point does the source give for `COc1ccc(NC(=O)CCl)cc1S(=O)(=O)N1CCCCC1` here?
**A.** 142 to 144 °C

**Q.** With `CN1C(=O)CCC(C(N)=O)C1c1ccccc1` (stereo not given) as the compound, how does the melting point read?
**A.** 222 to 224 °C

**Q.** Which melting point does the source give for `O=c1[nH]c2c(s1)CCCC2` here?
**A.** 141 to 143 °C

**Q.** With `O=C(Nc1nc2ccccc2s1)OCC(F)(F)F` as the compound, how does the melting point read?
**A.** 224 to 226 °C

**Q.** Which melting point does the source give for `CS(=O)(=O)Nc1ccc(S(=O)(=O)Cl)cc1F` here?
**A.** 164 to 166 °C

**Q.** Which melting point does the source give for `O=C(O)CC1=NN(c2ncc(C(F)(F)F)cc2Cl)C(=O)C1` here?
**A.** 173 to 175 °C

**Q.** For `CCOC(=O)c1ccc(S(=O)(=O)N2CCNCC2)cc1`, which melting point is on record?
**A.** 94 to 96 °C

**Q.** With `O=C1CC2(CCCc3ccccc32)C(=O)O1` (stereo not given) as the compound, how does the melting point read?
**A.** 99 to 101 °C

**Q.** With `COc1ccccc1SCC(=O)O` as the compound, how does the melting point read?
**A.** 99 to 101 °C

**Q.** For `Nc1ccc(-c2cn3cccnc3n2)cc1`, which melting point is on record?
**A.** 251 to 253 °C

**Q.** With `CN(C)c1cccc(-c2nnc(S)n2N)c1` as the compound, how does the melting point read?
**A.** 209 to 211 °C

**Q.** With `CC1(C)CC(=O)NC1=O` as the compound, how does the melting point read?
**A.** 103 to 105 °C

**Q.** For `O=C(O)C=CC(=O)c1ccc(F)c(F)c1`, which melting point is on record?
**A.** 114 to 116 °C

**Q.** With `NC1CCN(c2c(F)cccc2F)C1=O` (stereo not given) as the compound, how does the melting point read?
**A.** 62 to 64 °C

**Q.** For `N#Cc1c(F)c(N)c(F)c(F)c1C#N`, which melting point is on record?
**A.** 159 to 161 °C

**Q.** Which melting point does the source give for `Nc1ccc(-c2nc3cc(Br)ccc3[nH]2)cc1` here?
**A.** 219 to 221 °C

**Q.** For `O=C(O)c1cc(S(=O)(=O)Cl)c(Br)s1`, which melting point is on record?
**A.** 109 to 111 °C

**Q.** With `Nc1ccccc1S(=O)(=O)Nc1ccccc1` as the compound, how does the melting point read?
**A.** 118 to 120 °C

**Q.** With `CNC1CCN(C2CCOCC2)CC1` as the compound, how does the melting point read?
**A.** 32 to 34 °C

**Q.** For `CC(=O)c1cc(C(=O)O)ccc1O`, which melting point is on record?
**A.** 239 to 241 °C

**Q.** Which melting point does the source give for `Cc1cc(=O)n2c(n1)NCC2` here?
**A.** 159 to 161 °C

**Q.** With `Cn1ncc2c(=O)n(CCC(=O)O)cnc21` as the compound, how does the melting point read?
**A.** 212 to 214 °C

**Q.** For `O=C(CSc1nnc(NCc2ccccc2)s1)NCC1CCCCC1`, which melting point is on record?
**A.** 134 to 136 °C

**Q.** With `CCOC(=O)/C(C#N)=C\Nc1cc(C)ccc1OC` as the compound, how does the melting point read?
**A.** 131 to 133 °C

**Q.** With `CN(C)S(=O)(=O)Nc1ccccc1Br` as the compound, how does the melting point read?
**A.** 78 to 80 °C

**Q.** For `COc1cc(C=O)cc(Cl)c1OC(C)C`, which melting point is on record?
**A.** 34 to 36 °C

**Q.** With `CN1CCc2ccc(S(=O)(=O)Cl)cc21` as the compound, how does the melting point read?
**A.** 62 to 64 °C

**Q.** For `Nc1ccc(CN2CCC(CO)CC2)cc1`, which melting point is on record?
**A.** 165 to 167 °C
